In the test the target is KRas G12D (Homo sapiens (Human), UniProt P01116, G12D). Nature of the test: KRas G12D Binding Assay (TR-FRET displacement of Cy5 labelled tracer). The settings on record: GDP-loaded KRAS G12D (amino acids 1:169), 60 minute incubation at 22° C. The procedure:
After a 60 minute incubation at 22° C., the reaction was measured using a PerkinElmer EnVision multimode plate reader via TR-FRET dual wavelength detection, and the percent of control (POC) calculated using a ratiometric emission factor. […] The POC values were fit to a 4-parameter logistic curve and the IC50 value was determined as the concentration where the curve crosses 50 POC.
ND stands for “not determined.”
For orientation: TR-FRET usually uses a lanthanide donor and a delayed reading to cut background.

Counter-ions that a name gives are not always drawn.

Chain of KRas G12D (P01116 other isoform, or with tags, fused parts or gaps G12D): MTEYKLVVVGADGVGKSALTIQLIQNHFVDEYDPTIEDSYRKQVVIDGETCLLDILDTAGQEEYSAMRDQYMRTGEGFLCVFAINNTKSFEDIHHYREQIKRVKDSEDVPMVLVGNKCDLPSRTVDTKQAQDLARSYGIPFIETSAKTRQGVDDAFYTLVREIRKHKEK

As usually defined, the IC50 is the concentration that gives 50% inhibition. Compound `Fc1c(-c2cccc3c2C(C2CC2)CC3)ncc2c(N3CC4CCC(C3)N4)nc(OC[C@@]34CCCN3C[C@H](F)C4)nc12` (stereo partly drawn) [Example 437, 4-(3,8-diazabicyclo[3.2.1]octan-3-yl)-7-(3-cyclopropyl-2,3-dihydro-1H-inden-4-yl)-8-fluoro-2-(((2R,7aS)-2-fluorotetrahydro-1H-pyrrolizin-7a(5H)-yl)methoxy)pyrido[4,3-d]pyrimidine] yielded a half-inhibitory concentration (IC50) of 234 nM. Turning to `O=C1CCC2(COc3nc(N4CC5CCC(C4)N5)c4cnc(-c5cc(O)cc6ccccc56)c(F)c4n3)CCCN12` (stereo not shown) [Example 462, 7a-(((4-(3,8-diazabicyclo[3.2.1]octan-3-yl)-8-fluoro-7-(3-hydroxynaphthalen-1-yl)pyrido[4,3-d]pyrimidin-2-yl)oxy)methyl)tetrahydro-1H-pyrrolizin-3(2H)-one], the IC50 stood at 0.751 nM. With `CCc1c(F)ccc2cccc(-c3ncc4c(N5C[C@H]6CC[C@@H](C5)N6)nc(OCC56CCCN5CCC6)nc4c3F)c12` [Example 426, 4-((1R,5S)-3,8-diazabicyclo[3.2.1]octan-3-yl)-7-(8-ethyl-7-fluoronaphthalen-1-yl)-8-fluoro-2-((hexahydro-1H-pyrrolizin-7a-yl)methoxy)pyrido[4,3-d]pyrimidine], the 50% inhibitory concentration (IC50) was found to be 0.9 nM. `CN(C)c1ccccc1-c1ncc2c(N3C[C@H]4CC[C@@H](C3)N4)nc(OCC34CCCN3CCC4)nc2c1F` [Example 296, 2-(4-((1R,5S)-3,8-diazabicyclo[3.2.1]octan-3-yl)-8-fluoro-2-((hexahydro-1H-pyrrolizin-7a-yl)methoxy)pyrido[4,3-d]pyrimidin-7-yl)-N,N-dimethylaniline] registered a 50% inhibitory concentration (IC50) of 112 nM. For the compound `NCCOc1nc(N2C[C@H]3CC[C@@H](C2)N3)c2cnc(-c3cccc4cccc(Cl)c34)c(F)c2n1` [Example 261, 2-((4-((1R,5S)-3,8-diazabicyclo[3.2.1]octan-3-yl)-7-(8-chloronaphthalen-1-yl)-8-fluoropyrido[4,3-d]pyrimidin-2-yl)oxy)ethanamine], the IC50 amounted to 8300 nM. `C[C@H]1CN2CCC[C@@]2(COc2nc(N3CC4CCC(C3)N4)c3cnc(-c4cccc5cccc(Cl)c45)c(F)c3n2)C1` (stereo in doubt) [Example 227, 4-((1R,5S)-3,8-diazabicyclo[3.2.1]octan-3-yl)-7-(8-chloronaphthalen-1-yl)-8-fluoro-2-((2-methyltetrahydro-1H-pyrrolizin-7a(5H)-yl)methoxy)pyrido[4,3-d]pyrimidine bis-hydrochloride] came in with an IC50 of 6.4 nM. Consider `Fc1c(-c2c(C(F)(F)F)ccc3[nH]ncc23)ncc2c(N3C[C@H]4CC[C@@H](C3)N4)nc(OCC34CCCN3CCC4)nc12` [Example 344, 4-((1R,5S)-3,8-diazabicyclo[3.2.1]octan-3-yl)-8-fluoro-2-((tetrahydro-1H-pyrrolizin-7a(5H)-yl)methoxy)-7-(5-(trifluoromethyl)-1H-indazol-4-yl)pyrido[4,3-d]pyrimidine], for which the IC50 is 10.9 nM.

`COC(c1ccc(O)cc1-c1ncc2c(N3CC4CCC(C3)N4)nc(OC[C@@]34CCCN3C[C@H](F)C4)nc2c1F)C(F)(F)F` (stereo in doubt) [Example 390, 3-(4-((1R,5S)-3,8-diazabicyclo[3.2.1]octan-3-yl)-8-fluoro-2-((2-fluorotetrahydro-1H-pyrrolizin-7a(5H)-yl)methoxy)pyrido[4,3-d]pyrimidin-7-yl)-4-(2,2,2-trifluoro-1-methoxyethyl)phenol] yielded a half-inhibitory concentration (IC50) of 36.8 nM. Regarding `CC(C)(C)[Si](C)(C)OCC1CCC2(COc3nc(N4C[C@H]5CC[C@@H](C4)N5)c4cnc(-c5cccc6cccc(Cl)c56)c(F)c4n3)CCCN12` (stereo partly drawn) [Example 64, 4-((1R,5S)-3,8-diazabicyclo[3.2.1]octan-3-yl)-2-((3-(((tert-butyldimethylsilyl)oxy)methyl)tetrahydro-1H-pyrrolizin-7a(5H)-yl)methoxy)-7-(8-chloronaphthalen-1-yl)-8-fluoropyrido[4,3-d]pyrimidine], the IC50 amounted to 3.3 nM.

For the compound `Oc1ccc(CC(F)(F)F)c(-c2ncc3c(N4C[C@H]5CC[C@@H](C4)N5)nc(OC[C@@]45CCCN4C[C@H](F)C5)nc3c2F)c1` [Example 424, 3-(4-((1R,5S)-3,8-diazabicyclo[3.2.1]octan-3-yl)-8-fluoro-2-(((2R,7aS)-2-fluorohexahydro-1H-pyrrolizin-7a-yl)methoxy)pyrido[4,3-d]pyrimidin-7-yl)-4-(2,2,2-trifluoroethyl)phenol], the half-inhibitory concentration (IC50) turned out to be 5 nM. In turn, `CO[C@H]1C[C@@H](COc2nc(N3C[C@H]4CC[C@@H](C3)N4)c3cnc(-c4cccc5cccc(Cl)c45)c(F)c3n2)N(C)C1` [Example 149, 4-((1R,5S)-3,8-diazabicyclo[3.2.1]octan-3-yl)-7-(8-chloronaphthalen-1-yl)-8-fluoro-2-(((2S,4S)-4-methoxy-1-methylpyrrolidin-2-yl)methoxy)pyrido[4,3-d]pyrimidine] had an IC50 of 870 nM. The same measure for `O[C@@H]1C[C@@H]2CN(c3nc(OCCn4ccnc4C(F)(F)F)nc4c(F)c(-c5cccc6cccc(Cl)c56)ncc34)C[C@H]1N2` [Example 169, (1R,5R,6R)-3-(7-(8-chloronaphthalen-1-yl)-8-fluoro-2-(2-(2-(trifluoromethyl)-1H-imidazol-1-yl)ethoxy)pyrido[4,3-d]pyrimidin-4-yl)-3,8-diazabicyclo[3.2.1]octan-6-ol]: 657 nM. Compound `Oc1cc(-c2ncc3c(N4C[C@H]5CC[C@@H](C4)N5)nc(OCC45CCCN4CCC5)nc3c2F)c2c(Cl)c(F)ccc2c1` [Example 245, 4-(4-((1R,5S)-3,8-diazabicyclo[3.2.1]octan-3-yl)-8-fluoro-2-((hexahydro-1H-pyrrolizin-7a-yl)methoxy)pyrido[4,3-d]pyrimidin-7-yl)-5-chloro-6-fluoronaphthalen-2-ol] came in with a half-maximal inhibitory concentration (IC50) of 0.5 nM. `COC[C@H]1CC[C@@]2(COc3nc(N4CC5CCC(C4)N5)c4cnc(-c5cc(O)cc6ccccc56)c(F)c4n3)CCCN12` (stereo in doubt) [Example 389, 4-(4-((1R,5S)-3,8-diazabicyclo[3.2.1]octan-3-yl)-8-fluoro-2-((3-(methoxymethyl)tetrahydro-1H-pyrrolizin-7a(5H)-yl)methoxy)pyrido[4,3-d]pyrimidin-7-yl)naphthalen-2-ol] came in with an IC50 of 1.4 nM. In the case of `O[C@@H]1C[C@@H]2CN(c3nc(OCCc4nccn4C(F)F)nc4c(F)c(-c5cccc6cccc(Cl)c56)ncc34)C[C@H]1N2` [Example 166, (1R,5R,6R)-3-(7-(8-chloronaphthalen-1-yl)-2-(2-(1-(difluoromethyl)-1H-imidazol-2-yl)ethoxy)-8-fluoropyrido[4,3-d]pyrimidin-4-yl)-3,8-diazabicyclo[3.2.1]octan-6-ol], the IC50 was determined as 1290 nM.

Turning to `Fc1c(-c2cccc3cccc(Cl)c23)ncc2c(N3C[C@H]4CC[C@@H](C3)N4)nc(OC[C@]34CCCN3[C@@H](Cn3cccn3)CC4)nc12` [Example 418, 2-(((3R,7aR)-3-((1H-pyrazol-1-yl)methyl)hexahydro-1H-pyrrolizin-7a-yl)methoxy)-4-((1R,5S)-3,8-diazabicyclo[3.2.1]octan-3-yl)-7-(8-chloronaphthalen-1-yl)-8-fluoropyrido[4,3-d]pyrimidine], the IC50 amounted to 7.5 nM. Regarding `Fc1c(-c2cncc3cccc(Cl)c23)ncc2c(N3C[C@H]4CC[C@@H](C3)N4)nc(OC[C@]34CCCN3C[C@@H](F)C4)nc12` [Example 203, 4-((1R,5S)-3,8-diazabicyclo[3.2.1]octan-3-yl)-7-(5-chloroisoquinolin-4-yl)-8-fluoro-2-(((2S,7aR)-2-fluorotetrahydro-1H-pyrrolizin-7a(5H)-yl)methoxy)pyrido[4,3-d]pyrimidine], the IC50 came to 28.1 nM. `COCCO[C@@H]1C[C@@H](COc2nc(N3C[C@H]4CC[C@@H](C3)N4)c3cnc(-c4cccc5cccc(Cl)c45)c(F)c3n2)N(C)C1` [Example 202, 4-((1R,5S)-3,8-diazabicyclo[3.2.1]octan-3-yl)-7-(8-chloronaphthalen-1-yl)-8-fluoro-2-(((2S,4R)-4-(2-methoxyethoxy)-1-methylpyrrolidin-2-yl)methoxy)pyrido[4,3-d]pyrimidine]: the half-inhibitory concentration (IC50) was 94 nM.

Consider `Fc1c(-c2ccccc2Cl)ncc2c(N3C[C@H]4CC[C@@H](C3)N4)nc(OCC34CCCN3CCC4)nc12` [Example 310, 4-((1R,5S)-3,8-diazabicyclo[3.2.1]octan-3-yl)-7-(2-chlorophenyl)-8-fluoro-2-((hexahydro-1H-pyrrolizin-7a-yl)methoxy)pyrido[4,3-d]pyrimidine], for which the half-inhibitory concentration (IC50) was 559 nM. The same measure for `Oc1cccc(OC(F)(F)F)c1-c1ncc2c(N3CC4CCC(C3)N4)nc(OC[C@@]34CCCN3C[C@H](F)C4)nc2c1F` [Example 392, 2-(4-((1R,5S)-3,8-diazabicyclo[3.2.1]octan-3-yl)-8-fluoro-2-((2-fluorotetrahydro-1-H-pyrrolizin-7a(5H)-yl)methoxy)pyrido[4,3-d]pyrimidin-7-yl)-3-(trifluoromethoxy)phenol]: 208 nM; for `CCc1cccc2cncc(-c3ncc4c(N5CC6CCC(C5)N6)nc(OCC56CCCN5C[C@H](F)C6)nc4c3F)c12` (mixture of isomers) [Example 324, 4-((1R,5S)-3,8-diazabicyclo[3.2.1]octan-3-yl)-7-(5-ethylisoquinolin-4-yl)-8-fluoro-2-((2-fluorotetrahydro-1H-pyrrolizin-7a(5H)-yl)methoxy)pyrido[4,3-d]pyrimidine (racemic, trans)]: 10.2 nM.

Consider `Oc1cc(-c2ncc3c(N4C[C@H]5CC[C@@H](C4)N5)nc(OC[C@@]45CCCN4C[C@H](F)C5)nc3c2F)c2c(F)c(F)ccc2c1` [Example 246, 4-(4-((1R,5S)-3,8-diazabicyclo[3.2.1]octan-3-yl)-8-fluoro-2-(((2R,7aS)-2-fluorohexahydro-1H-pyrrolizin-7a-yl)methoxy)pyrido[4,3-d]pyrimidin-7-yl)-5,6-difluoronaphthalene-2-ol], for which the half-maximal inhibitory concentration (IC50) is 0.6 nM.

Values taken from US20230279025A1, “KRAS G12D INHIBITORS” (Mirati Therapeutics, Inc., priority 2020, published 2023).
